In ChEMBL document CHEMBL1137449, “A refined agonist pharmacophore for protease activated receptor 2” (Bioorg Med Chem Lett, 2007):
Activity calls are given as the source filed them. No cut-off for these calls is given here. Square brackets hold non-standard residues; d marks the D form. Peptide text beside a SMILES is read from it. Phe(4-NO2) = N[C@@H](Cc1ccc([N+](=O)[O-])cc1)C(=O)O

Tests used:
[1] = target: T1, Proteinase-activated receptor 2 (Homo sapiens, UniProt P55085); experiment: Agonist activity at PAR2 expressed in human HT29 cells assessed as intracellular calcium release; type: functional, cell-based, HT-29
T1 sequence (P55085 whole entry): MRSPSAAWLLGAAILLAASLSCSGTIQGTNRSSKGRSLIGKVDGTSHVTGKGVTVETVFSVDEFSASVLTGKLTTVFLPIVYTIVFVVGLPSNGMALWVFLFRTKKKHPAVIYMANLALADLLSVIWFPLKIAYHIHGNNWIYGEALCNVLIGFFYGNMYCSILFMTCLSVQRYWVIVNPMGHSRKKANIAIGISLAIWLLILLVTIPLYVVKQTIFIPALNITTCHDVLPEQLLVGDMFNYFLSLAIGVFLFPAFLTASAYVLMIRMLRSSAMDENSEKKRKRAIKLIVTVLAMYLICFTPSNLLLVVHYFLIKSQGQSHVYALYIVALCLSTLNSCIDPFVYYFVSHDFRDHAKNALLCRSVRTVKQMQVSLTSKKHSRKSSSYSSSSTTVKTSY

[2] = target: Proteinase-activated receptor 2 (Homo sapiens) (UniProt P55085); experiment: Agonist activity at PAR2 expressed in 2-furoyl-LIGRLI-NH2 treated human HT29 cells assessed as intracellular calcium response; type: functional, cell-based; conditions: HT-29

EC50 [1]: 400 nM
Activity [2]: inactive
SMILES: CC[C@H](C)[C@H](NC(=O)[C@H](Cc1ccc([N+](=O)[O-])cc1)NC(=O)[C@H](CCCNC(=N)N)NC(=O)CNC(=O)[C@@H](NC(=O)[C@H](CC(C)C)NC(=O)[C@@H](N)CO)[C@@H](C)CC)C(N)=O (H-SLIGR[Phe(4-NO2)]I-NH2)
